Experimental data: publication PMC5581453, “Combination therapy of PKCζ and COX-2 inhibitors synergistically suppress melanoma metastasis” (Journal of Experimental & Clinical Cancer Research : CR, 2017)
pIC50: −log10 of the molar value.

Target: T1, PKCζ (protein kinase C ζ) (Homo sapiens, UniProt Q05513)
T1 construct: gene PRKCZ
T1 sequence (Q05513 1-592): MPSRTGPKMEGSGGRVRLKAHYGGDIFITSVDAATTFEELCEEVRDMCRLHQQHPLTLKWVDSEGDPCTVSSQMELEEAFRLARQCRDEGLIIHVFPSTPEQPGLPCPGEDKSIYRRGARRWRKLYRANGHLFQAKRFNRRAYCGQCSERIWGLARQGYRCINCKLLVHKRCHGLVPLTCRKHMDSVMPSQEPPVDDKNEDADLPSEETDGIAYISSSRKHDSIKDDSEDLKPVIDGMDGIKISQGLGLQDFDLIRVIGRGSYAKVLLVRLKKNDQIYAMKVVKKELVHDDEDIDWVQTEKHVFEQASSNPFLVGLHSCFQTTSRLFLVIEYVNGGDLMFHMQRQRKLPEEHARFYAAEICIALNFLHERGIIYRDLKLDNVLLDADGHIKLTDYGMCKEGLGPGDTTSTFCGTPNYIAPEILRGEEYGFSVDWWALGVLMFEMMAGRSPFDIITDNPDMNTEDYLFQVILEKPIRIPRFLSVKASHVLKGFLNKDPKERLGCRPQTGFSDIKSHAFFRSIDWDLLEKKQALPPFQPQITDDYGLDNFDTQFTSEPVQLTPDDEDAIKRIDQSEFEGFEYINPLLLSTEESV
Test: Z'-LYTE kinase assay (Ser/Thr […] peptide) with purchased PKCζ (Invitrogen Cat. No. […]), […] ATP
Assay type: biochemical

With `Cc1c(CSC(=N)N)c(C)c(CSC(=N)N)c(C)c1CSC(=N)N` [J-4] as the molecule, how does the pIC50 read?
The pIC50 was roughly 5.00.
